Results: article PMC3154276, “The Effect of the Potential PhoQ Histidine Kinase Inhibitors on Shigella flexneri Virulence” (PLoS ONE, 2011)

Assays:
S. flexneri Sf9380 = experiment: Mouse Sereny test (keratoconjunctivitis); assay type: in vivo, BALB/c mice; conditions: for degree of keratoconjunctival inflammation: Sf9380 pre-treated at the concentration (I 1 12.5, I 2 25, I 3 and I 4 100 µmol/L); for degree of keratoconjunctival inflammation: key: −: no disease; ±: little keratoconjunctivitis; +: mild keratoconjunctivitis; ++: keratoconjunctivitis with some purulence; +++: fully developed keratoconjunctivitis with great purulence
Text: A Mouse Sereny test was used to investigate the inhibitory effect of the four potential PhoQ inhibitors on the virulence of S. flexneri Sf9380. The mice were infected with 1×10^8 CFUs per eye.
A Mouse Sereny test was used to evaluate the virulence of S. flexneri Sf9380 [48]. A single red colony of Sf9380 on Congo Red agar (Tryptic soy broth provided by Oxfoid Co. with 1.5% agar and 0.01% Congo red), was inoculated into LB and grown with or without potential PhoQ inhibitors (final concentration 100,50,25,12.5 or 6.25 µmol/L) at 37°C for 8 hours with constant shaking. The female BALB/c mice (about 18 g) were infected with 1×10^8 CFUs per eye. The eye of the mouse was inoculated with the bacterium with or without potential PhoQ inhibitor treatment (n = 6 mice in each group). […] In the experiment, mouse eyes inoculated with untreated Sf9380 (treated without DMSO) served as the positive control for keratoconjunctivitis, and mouse eyes inoculated with E. coli ATCC 25922 (treated without DMSO) served as the negative control. Because DMSO is the solvent of the potential PhoQ inhibitor, Sf9380 was treated with the same amount of DMSO (0.1%) as the other groups. The invasiveness of the bacteria was scored: no disease or mild irritation as “−”, + as mild conjunctivitis or late development and/or rapid clearing of symptoms, ++ as keratoconjunctivitis without purulence, and +++ as fully developed keratoconjunctivitis with purulence.

S. flexneri 2a 301 = experiment: Gentamicin protection assay, HeLa cell invasion by Sf301; assay type: cell-based; conditions: bacteria treated 8 h, Figure S4
Description: Supplementary file pone.0023100.s004.tif: Figure S4 The effects of potential PhoQ inhibitors on cell invasion of Shigella Sf 301. […] The bacteria were treated with each of the four potential PhoQ inhibitors grown for 8 h. Then the bacteria were inoculated with HeLa cells for 60 minutes prior to the addition of gentamicin to kill extracellular bacteria. After the incubation, the HeLa cells in each well were lysed in 1 ml of PBS containing 0.1% Triton X-100. The lysates were diluted and plated onto LB agar plates in triplicate. Colonies grown on LB plates were counted. The results of the assays were expressed as the number of bacteria recovered from gentamicin-treated cells divided by the number of inoculated bacteria added to the cell. Values are means ± standard deviations from 6 independent wells. *p<0.01 vs. Sf301. […] (TIF) Click here for additional data file.

[1] = test system: S. flexneri 2a 301 phoQ/phoP knock-out mutant (Sf301 ΔphoQ/phoP); experiment: Gentamicin protection assay, HeLa cell invasion by phoQ/phoP knock-out mutant; assay type: cell-based; conditions: HeLa cells
Description: Bacterial ability to invade HeLa cells was tested with a gentamicin protection assay. HeLa cells were grown in six-well tissue culture plates to semi-confluent monolayers (DMEM, 10% FCS, 5% CO2). Sf9380 or Sf301 ΔphoQ/phoP was treated with potential PhoQ inhibitors for 8 hours in LB at 37°C (final concentrations of 100,50,25,12.5 or 6.25 µmol/L) prior to infection. The bacteria pre-treated with potential PhoQ inhibitor without washing, were added to semi-confluent HeLa cells at a multiplicity of infection of 100, at the same time the bacteria were diluted and plated onto LB agar plates. The CFUs were counted as initial bacterial number before added into HeLa cells. Then the plates were centrifuged at 900×g for 5 minutes. After incubating at 37°C for 60 minutes (For testing intracellular growth and spreading to adjacent cell, cells were further incubated for 290 min [9].), the cells were washed three times with PBS, and gentamicin was added to the medium to a final concentration of 10 µg/ml for 20 minutes at 37°C. After the incubation, the HeLa cells in each well were lysed in 1 ml of PBS containing 0.1% Triton X-100 for 10 minutes at room temperature. The lysates were diluted and plated onto LB agar plates in triplicate. Colonies grown on LB plates were counted. The results of the assays were expressed as the number of bacteria recovered from gentamicin-treated cells divided by the number of inoculated bacteria added to the cell. The cells were inoculated with untreated Sf9380 or Sf301 ΔphoQ/phoP (treated without DMSO) as a positive control and E. coli ATCC 25922, an avirulent strain treated without DMSO, as a negative control. DMSO is the solvent of the potential PhoQ inhibitor compounds; therefore, Sf9380 was also treated with the same amount of 0.1% DMSO as the other groups to control for any DMSO-specific effects. The cell invasion assay was performed in triplicate for each potential PhoQ inhibitor, and the assay was repeated twice.

[2] = Sf9380 pre-treated with 12.5 µmol/L, 1×10^8 CFUs per eye

## O=C(Nc1ccc(C2(c3cccc(NC(=O)c4cccc5ccccc45)c3)c3ccccc3C(=O)c3ccccc32)cc1)c1ccc2ccccc2c1 [Compound 1]
S. flexneri Sf9380; 24 h, mouse 1
  degree of keratoconjunctival inflammation: +
S. flexneri Sf9380; 24 h, mouse 2
  degree of keratoconjunctival inflammation: +
S. flexneri Sf9380; 24 h, mouse 3
  degree of keratoconjunctival inflammation: +
S. flexneri Sf9380; 24 h, mouse 4
  degree of keratoconjunctival inflammation: −
S. flexneri Sf9380; 24 h, mouse 5
  degree of keratoconjunctival inflammation: +
S. flexneri Sf9380; 24 h, mouse 6
  degree of keratoconjunctival inflammation: +
S. flexneri Sf9380; 48 h, mouse 1
  degree of keratoconjunctival inflammation: −
S. flexneri Sf9380; 48 h, mouse 2
  degree of keratoconjunctival inflammation: −
S. flexneri Sf9380; 48 h, mouse 3
  degree of keratoconjunctival inflammation: +
S. flexneri Sf9380; 48 h, mouse 4
  degree of keratoconjunctival inflammation: −
S. flexneri Sf9380; 48 h, mouse 5
  degree of keratoconjunctival inflammation: −
S. flexneri Sf9380; 48 h, mouse 6
  degree of keratoconjunctival inflammation: −
S. flexneri Sf9380; 72 h, mouse 1
  degree of keratoconjunctival inflammation: −
S. flexneri Sf9380; 72 h, mouse 2
  degree of keratoconjunctival inflammation: −
S. flexneri Sf9380; 72 h, mouse 3
  degree of keratoconjunctival inflammation: −
S. flexneri Sf9380; 72 h, mouse 4
  degree of keratoconjunctival inflammation: −
S. flexneri Sf9380; 72 h, mouse 5
  degree of keratoconjunctival inflammation: −
S. flexneri Sf9380; 72 h, mouse 6
  degree of keratoconjunctival inflammation: −
S. flexneri Sf9380; 96 h, mouse 1
  degree of keratoconjunctival inflammation: −
S. flexneri Sf9380; 96 h, mouse 2
  degree of keratoconjunctival inflammation: −
S. flexneri Sf9380; 96 h, mouse 3
  degree of keratoconjunctival inflammation: −
S. flexneri Sf9380; 96 h, mouse 4
  degree of keratoconjunctival inflammation: −
S. flexneri Sf9380; 96 h, mouse 5
  degree of keratoconjunctival inflammation: −
S. flexneri Sf9380; 96 h, mouse 6
  degree of keratoconjunctival inflammation: −
S. flexneri Sf9380; [2]
  eye finding at 24 hours after infection: slight conjunctival inflammation
  time by which keratoconjunctivitis was resolved: ≤ 48 h
S. flexneri Sf9380; mice inoculated with pre-treated S. flexneri 9380
  keratoconjunctival inflammation (words, abstract): no inflammation
S. flexneri 2a 301
  effect on HeLa cell invasion ability of Sf301: can inhibit
[1]; 12.5 µmo/L, untreated mutant 0.069
  cell invasion rate of Sf301 ΔphoQ/phoP: 0.064
[1]; Figure 6C
  effect on cell invasion of Sf301 phoQ/phoP knock-out mutant: no obvious effects
